Consider three molecules from patent publication US10716805B2, “Formulation for release of nitric oxide” (Glanotech Limited, priority 2018, dated 2020).

Data set [1] relates to corpus cavernosum tissue. As to the kind of experiment: In-vitro relaxation/contraction of rat corpus cavernosum tissue (force displacement transducer). The following applies: for relaxation of the tissue of the corpora cavernosa pre-constricted with norepinephrine (vasodilatory effect): scalar solutions 10^−s M to 10^−3 M after norepinephrine constriction of about 1.5 mN. It is filed as cell-based. From the text: In particular, this model is used for planning experiments aimed at checking the vasodilatory action of NO on vascular smooth muscle cells, since the methodology presented by the authors allows samples of corpus cavernosum tissue to be obtained from rats, on which studies of response to various exogenous molecules can be conducted, to detect their relaxation/contraction effects on smooth muscle cells.
We used 20 adult Wistar-type rats weighing between 175 and 200 g; after having sacrificed the rats we obtained corpus cavernosum tissues as described by the methods and placed these in a Krebs solution (in mM: 118 NaCl, 4.7 KCl, 1.2 KH2PO4, 1.2 MgSO4, 1.5 CaCl2, 25 NaHCO3, 11 glucose).
A single sample was taken from each rat.
The excised tissues were then put in 10 mL Krebs solution and held in place by two metal arms to allow assessment of any changes in the forces observed and assessed by the Grass FT03 model (using a force displacement transducer apparatus to assess the muscle tension of tissues, calibrated in mN). The saline solution containing the tissues (Krebs solution) was kept at pH 7.4±0.1 and at 37° C., with oxygenation using a mixture of 95% oxygen and 5% carbon dioxide.

Data set [2] is described as follows: Formation and stability of nitrosothiol after mixing of phases A and B (visible UV absorption spectrum). It is filed as physicochemical. Conditions: at room temperature. As for the experimental part: The reaction mixture is prepared by dissolving the following amounts of reagents in 5 mL propylene glycol: fumaric acid 10 mM; ascorbic acid between 30 and 50 mM (PHASE A).
A solid phase, consisting of a mixture of pantetheine, sodium nitrite and powdered copper sulfate, is added rapidly to the solution obtained, in a quantity such that their concentration in the final reaction volume amounts to: pantetheine 10 mM, sodium nitrite 15 mM; copper sulfate 1 mM (PHASE B). Mixing is done at room temperature (25° C.) (Fukuto et al., 2013).
The S-nitroso compound observed, which was absent […] the phases were mixed, is attributable to the S-nitroso pantetheine derivative.
At the same time, owing to the catalytic action of the traces of copper present, the corresponding nitrosothiol is also formed, and remains sufficiently stable for more than 1 hour at room temperature. Therefore, this formulation allows the rapid formation of nitrogen monoxide in a rapidly diffusible form and, at the same time, the formation of nitrosothiol that is sufficiently stable for the sustained release of nitrogen monoxide over time.

Data set [3] has as its system rat model with type 1 diabetes induced by streptozotocin. As to the kind of experiment: In-vivo test of sexual function in diabetic rat models. Conditions: for EL (Ejaculation latency) / IF (Introduction frequency) / IL (Introduction latency) / MF (Mating frequency) / ML (Mating latency) / PEI (Post-ejaculatory interval): diabetic rat. As to the method: Next we tested the possible beneficial effects of SNO-pantetheine on sexual function in a rat model with type 1 diabetes induced by streptozotocin, which is typically accompanied by deficit of sexual activity.
In short, male Wistar rats were assigned to a cage (45×50×35 cm) covered in glass and lit with red light. Training took place every day after 5 pm for about 30 min, and after 10 minutes of acclimatization a female rat in an oestrogenic phase was introduced into the cage. We then observed the sexual behaviour of diabetic rats vs. the relevant controls by measuring standard parameters (Burnett et al., 1995).

Setting [4] is: SNO-pantetheine group, Day 0 (baseline).
Setting [5] is: topical SNO-pantetheine, Day 30.

“Also recorded” adds a separate entry of the source.

Turning to `NC[C@H](O)c1ccc(O)c(O)c1` [norepinephrine, reference compound], in data set [1] (scalar solutions 10^−8 M to 10^−3 M, Krebs solution pH 7.4, 37° C.), the “constriction of corpus cavernosum tissue” value is “about 1.5 mN”.

For S-nitrosothiol of alpha lipoic acid, in data set [1], the “relaxation of the tissue of the corpora cavernosa pre-constricted with norepinephrine (vasodilatory effect)” value is on record as “behaviour that is very similar to that of the S-nitrosothiol of pantetheine; also recorded: exhibit the desired vasodilatory effect”.

In the case of “S-nitrosothiol of pantetheine [SNO-pantetheine]”, in data set [2], the “time nitrosothiol remains sufficiently stable” value is given as “more than 1 hour”. Further, in data set [1], the “relaxation of the tissue of the corpora cavernosa pre-constricted with norepinephrine (vasodilatory effect)” value is reported as “effect of the norepinephrine was cancelled out; also recorded: exhibit the desired vasodilatory effect”. In data set [3] (setting [4]), the “EL (Ejaculation latency)” value came to 423.2 ± 12.5 s, the “IF (Introduction frequency)” value is 11.2 ± 0.9 number, the “IL (Introduction latency)” value was 52.3 ± 3.9 s and the “MF (Mating frequency)” value is reported as 12.0 ± 1.7 number. Also, in data set [3] (setting [4]), the “ML (Mating latency)” value is 42.5 ± 2.9 s and the “PEI (Post-ejaculatory interval)” value is 343.3 ± 10.9 s. Also, in data set [3] (setting [5]), the “EL (Ejaculation latency)” value turned out to be 375.8 ± 10.8 s, the “IF (Introduction frequency)” value is given as 14.5 ± 0.8 number, the “IL (Introduction latency)” value was found to be 44.7 ± 4.2 s and the “MF (Mating frequency)” value was 11.2 ± 0.3 number. Besides, in data set [3] (setting [5]), the “ML (Mating latency)” value stood at 34.3 ± 2.5 s and the “PEI (Post-ejaculatory interval)” value was 386.2 ± 14.3 s. Besides, in data set [3] (topical application, vs. all the parameters assessed), the “effect on sexual behaviour in the diabetic rat model” value was “able to induce an increase in sexual behaviour”.
